# Results taken from patent US20170320939A1, “COLL2-1 PEPTIDE AND ITS NITRATED FORM AS THERAPEUTIC TARGETS FOR OSTEOARTHRITIS TREATMENT” (Université de Liège, priority 2014, published 2017).
# Assays:
# Format in all cases: cell-based, human
# [1] = system: OA synovial fibroblast cells; assay: Intracellular GSH assay in OA synovial fibroblast cells; settings: Coll2-1 at 0.45 and 4.5 nmol, 24 hours
# Procedure: 1.1 Patients. Synovial tissue samples were obtained from 10 patients (8 women, 2 man; mean age 70 +/−6 years) with osteoarthritis (OA) of the knee at the time of total knee joint replacement surgery. All the subjects provided their informed consent.
# 1.2 Isolation and culture of synovial cells. Synovium biopsies were digested is with collagenase from Clostridium histolyticum, Type IA (1 mg/ml) (Sigma-Aldrich, Saint-Louis, USA) and 0.25% trypsin (Sigma Aldrich, Saint Louis, USA) with 0.68 mM EDTA in Tris buffer 0.1M, pH 7.4 in complete medium (CM) (DMEM (Dulbecco's Modified Eagle's Medium) Low Glucose supplemented with 10 mM HEPES, 100 U/ml penicillin, 100 μg/ml streptomycin, 2 mM glutamine and 10% fetal calf serum (Lonza, Verviers, Belgium)) for 1 hour at 37° C. The cells suspensions were passed through a 70-μm filter to remove any undigested tissue. The filtered cells suspensions were then collected by centrifugation at 800 g and were cultured in culture flasks. After 24 hours, medium was changed to eliminate non adherent cells. Synovial fibroblasts cells (SFC) were used after three passages. […]
# 1.6 GSH assay. Levels of intracellular GSH were assessed by monoclorobimane staining. […] The fluorescence intensities were measured at […] using excitation and emission wavelengths of 380 and 485 nm, respectively. The intracellular GSH level was expressed as arbitrary units of fluorescence intensity.
# TSP1 = TSP1 mRNA expression by Real Time PCR in OA synovial fibroblast cells; settings: increasing concentrations: Coll2-1 (0.45 and 4.5 nmol) or Coll2-1NO2 (4 and 40 pmol), 24 hours
# Procedure: (§1) 1.3 Treatment of synovial fibroblast cells. Cells were seeded into a six-well plate at the density of 2×10^5 cells/well in 2 ml of CM. When the cells reached confluence, the CM was replaced with 1% serum medium for 24 h to keep the cells quiescent. Cells were incubated for 24 hours with or without peptides Coll2-1 (^108HRGYPGLDG^116; 0.45 and 4.5 nmol) or Coll2-1NO2 (^108HRGYPGLDG-NO2^116; 4 and 40 pmol) at a range of concentrations found in the blood of osteoarthritic patients.
# 1.4 RNA extraction and Real Time Reverse Transcriptase-Polymerase Chain Reaction (RT PCR). Total RNA were extracted using the RNeasy Mini Kit (Qiagen, Netherlands) and were reverse transcribed with SuperScript III Reverse Transcriptase (Invitrogen, Belgium) according to the manufacturer's instructions. The cDNAs were quantified by real-time quantitative PCR using the Rotor Gene instrument (Qiagen, Venlo, Netherlands) and the SYBR Premix Ex Taq kit (Takara, Verviers, Belgium). The level of gene expression was determined by interpolation with a standard curve. To standardize mRNA levels, HPRT, a house keeping gene, was amplified as an internal control. The oligonucleotide primers sequences were as follow: HPRT forward, 5′-[…]-3′ (SEQ ID NO: 2); HPRT reverse, 5′-TGCCTGACCAAGGAAAGC-3′ (SEQ ID NO: 3); TSP-1 forward, 5′-CAGACCGCATTGGAGATAC-3′ (SEQ ID NO: 4); TSP-1 reverse, 5′-[…]-3′ (SEQ ID NO: 5); VEGF forward, 5′-TGCCTTGCTGCTCTAC-3′ (SEQ ID NO: 6); VEGF reverse, 5′-CACACAGGATGGCTTGAA-3′ (SEQ ID NO: 7); IL-6 forward, 5′-AAACAAATTCGGTACATCCTCG-3′ (SEQ ID NO: 8); IL-6 reverse, 5′-CCA GGC AAG TCT CCT CAT-3′ (SEQ ID NO: 9); IL-8 forward, 5′-GGAACCATCTCACTGTGTGTAA-3′ (SEQ ID NO: 10); IL-8 reverse, 5′-TGGAAAGGTTTGGAGTATGTCT-3′ (SEQ ID NO: 11).
# VEGF = VEGF mRNA expression by Real Time PCR in OA synovial fibroblast cells; settings: increasing concentrations: Coll2-1 (0.45 and 4.5 nmol) or Coll2-1NO2 (4 and 40 pmol), 24 hours
# Procedure: as §1
# 1.4 RNA extraction and Real Time Reverse Transcriptase-Polymerase Chain Reaction (RT PCR). Total RNA were extracted using the RNeasy Mini Kit (Qiagen, Netherlands) and were reverse transcribed with SuperScript III Reverse Transcriptase (Invitrogen, Belgium) according to the manufacturer's instructions. The cDNAs were quantified by real-time quantitative PCR using the Rotor Gene instrument (Qiagen, Venlo, Netherlands) and the SYBR Premix Ex Taq kit (Takara, Verviers, Belgium). The level of gene expression was determined by interpolation with a standard curve. To standardize mRNA levels, HPRT, a house keeping gene, was amplified as an internal control. […]
sequence,measurement,setting,value
HRGYPGLDG [Coll2-1],intracellular level of GSH,[1],significant decrease
same,TSP1 expression,TSP1,decrease
same,VEGF expression,VEGF,tended to increase
